Earlier results, collected in US6306900A, “Enteric coated pharmaceutical compositions” (priority 1996, dated 2001).

Experiments:
[1] = W. A. Lee et al
[2] = in words
[3] = patients; origin not known

For `COc1c(C)c2c(c(O)c1C/C=C(\C)CCC(=O)O)C(=O)OC2` [MPA, Mycophenolic acid], the bioavailability [1] is given as 43% and the known activity [2] is given as “anti-tumor, anti-viral, immunosuppressive, anti-psoriatic, and anti-inflammatory activity”.

For `COc1c(C)c2c(c(O)c1C/C=C(\C)CCC(=O)OCCN1CCOCC1)C(=O)OC2` [MMF, mycophenolate mofetil], the bioavailability [1] is given as 100% and the side-effects [3] is given as “gastro-intestinal side effects”.
